This passage reports IC50 results from ChEMBL document CHEMBL1649136, “Plasmodium falciparum pfmdr1 amplification, mefloquine resistance, and parasite fitness” (Antimicrob Agents Chemother, 2009).

The experiment relates to Plasmodium falciparum. The experiment in a line: Antimicrobial activity against Plasmodium falciparum isolate TM3036 expressing 1 copies of pfmdr1 gene.

`Cl.OC(c1cc(C(F)(F)F)nc2c(C(F)(F)F)cccc12)C1CCCCN1` (stereo unspecified) [MEFLOQUINE HYDROCHLORIDE] returned an IC50 of 1.47 ng/mL.

By IC50 is commonly meant the point on the concentration scale where inhibition reaches its midpoint. The low end stands for inhibition by little substance, the high end for a need for much substance.
